Assay results published in US10961232B2, “Substituted pyrazines as ATR kinase inhibitors” (Vertex Pharmaceuticals Incorporated, priority 2008, dated 2021).
Read-outs that look alike come from different tables or passages of the source.

Target: full-length ATR (Homo sapiens (Human), UniProt Q13535)
Test: ATR inhibition assay (radioactive-phosphate incorporation)
Format: biochemical
Description: Example 76A: ATR Inhibition Assay
Compounds were screened for their ability to inhibit ATR kinase using a radioactive-phosphate incorporation assay. Assays were carried out in a mixture of 50 mM Tris/HCl (pH 7.5), 10 mM MgCl2 and 1 mM DTT.
Assays were carried out at 25° C. in the presence of 5 nM full-length ATR. An assay stock buffer solution was prepared containing all of the reagents listed above, with the exception of ATP and the test compound of interest. […] The plate was pre-incubated for 10 minutes at 25° C. and the reaction initiated by addition of 15 μL [γ-33P]ATP (final concentration 10 μM).
The reaction was stopped after […] by the addition of 30 μL, 0.1M phosphoric acid containing 2 mM ATP. A multiscreen phosphocellulose filter 96-well plate (Millipore, Cat no. MAPHN0B50) was pretreated with 100 μL, 0.2M phosphoric acid prior to the addition of 45 μL of the stopped assay mixture. […] After drying, 100 μL Optiphase ‘SuperMix’ liquid scintillation cocktail (Perkin Elmer) was added to the well prior to scintillation counting (1450 Microbeta Liquid Scintillation Counter, Wallac).
After removing mean background values for all of the data points, Ki(app) data were calculated from non-linear regression analysis of the initial rate data using the Prism software package (GraphPad Prism version 3.0cx for Macintosh, GraphPad Software, San Diego, Calif., USA).

[1] = ATR Inhibition Ki values, 5 nM full-length ATR, 10 μM ATP

full-length ATR, sequence (Q13535 whole entry): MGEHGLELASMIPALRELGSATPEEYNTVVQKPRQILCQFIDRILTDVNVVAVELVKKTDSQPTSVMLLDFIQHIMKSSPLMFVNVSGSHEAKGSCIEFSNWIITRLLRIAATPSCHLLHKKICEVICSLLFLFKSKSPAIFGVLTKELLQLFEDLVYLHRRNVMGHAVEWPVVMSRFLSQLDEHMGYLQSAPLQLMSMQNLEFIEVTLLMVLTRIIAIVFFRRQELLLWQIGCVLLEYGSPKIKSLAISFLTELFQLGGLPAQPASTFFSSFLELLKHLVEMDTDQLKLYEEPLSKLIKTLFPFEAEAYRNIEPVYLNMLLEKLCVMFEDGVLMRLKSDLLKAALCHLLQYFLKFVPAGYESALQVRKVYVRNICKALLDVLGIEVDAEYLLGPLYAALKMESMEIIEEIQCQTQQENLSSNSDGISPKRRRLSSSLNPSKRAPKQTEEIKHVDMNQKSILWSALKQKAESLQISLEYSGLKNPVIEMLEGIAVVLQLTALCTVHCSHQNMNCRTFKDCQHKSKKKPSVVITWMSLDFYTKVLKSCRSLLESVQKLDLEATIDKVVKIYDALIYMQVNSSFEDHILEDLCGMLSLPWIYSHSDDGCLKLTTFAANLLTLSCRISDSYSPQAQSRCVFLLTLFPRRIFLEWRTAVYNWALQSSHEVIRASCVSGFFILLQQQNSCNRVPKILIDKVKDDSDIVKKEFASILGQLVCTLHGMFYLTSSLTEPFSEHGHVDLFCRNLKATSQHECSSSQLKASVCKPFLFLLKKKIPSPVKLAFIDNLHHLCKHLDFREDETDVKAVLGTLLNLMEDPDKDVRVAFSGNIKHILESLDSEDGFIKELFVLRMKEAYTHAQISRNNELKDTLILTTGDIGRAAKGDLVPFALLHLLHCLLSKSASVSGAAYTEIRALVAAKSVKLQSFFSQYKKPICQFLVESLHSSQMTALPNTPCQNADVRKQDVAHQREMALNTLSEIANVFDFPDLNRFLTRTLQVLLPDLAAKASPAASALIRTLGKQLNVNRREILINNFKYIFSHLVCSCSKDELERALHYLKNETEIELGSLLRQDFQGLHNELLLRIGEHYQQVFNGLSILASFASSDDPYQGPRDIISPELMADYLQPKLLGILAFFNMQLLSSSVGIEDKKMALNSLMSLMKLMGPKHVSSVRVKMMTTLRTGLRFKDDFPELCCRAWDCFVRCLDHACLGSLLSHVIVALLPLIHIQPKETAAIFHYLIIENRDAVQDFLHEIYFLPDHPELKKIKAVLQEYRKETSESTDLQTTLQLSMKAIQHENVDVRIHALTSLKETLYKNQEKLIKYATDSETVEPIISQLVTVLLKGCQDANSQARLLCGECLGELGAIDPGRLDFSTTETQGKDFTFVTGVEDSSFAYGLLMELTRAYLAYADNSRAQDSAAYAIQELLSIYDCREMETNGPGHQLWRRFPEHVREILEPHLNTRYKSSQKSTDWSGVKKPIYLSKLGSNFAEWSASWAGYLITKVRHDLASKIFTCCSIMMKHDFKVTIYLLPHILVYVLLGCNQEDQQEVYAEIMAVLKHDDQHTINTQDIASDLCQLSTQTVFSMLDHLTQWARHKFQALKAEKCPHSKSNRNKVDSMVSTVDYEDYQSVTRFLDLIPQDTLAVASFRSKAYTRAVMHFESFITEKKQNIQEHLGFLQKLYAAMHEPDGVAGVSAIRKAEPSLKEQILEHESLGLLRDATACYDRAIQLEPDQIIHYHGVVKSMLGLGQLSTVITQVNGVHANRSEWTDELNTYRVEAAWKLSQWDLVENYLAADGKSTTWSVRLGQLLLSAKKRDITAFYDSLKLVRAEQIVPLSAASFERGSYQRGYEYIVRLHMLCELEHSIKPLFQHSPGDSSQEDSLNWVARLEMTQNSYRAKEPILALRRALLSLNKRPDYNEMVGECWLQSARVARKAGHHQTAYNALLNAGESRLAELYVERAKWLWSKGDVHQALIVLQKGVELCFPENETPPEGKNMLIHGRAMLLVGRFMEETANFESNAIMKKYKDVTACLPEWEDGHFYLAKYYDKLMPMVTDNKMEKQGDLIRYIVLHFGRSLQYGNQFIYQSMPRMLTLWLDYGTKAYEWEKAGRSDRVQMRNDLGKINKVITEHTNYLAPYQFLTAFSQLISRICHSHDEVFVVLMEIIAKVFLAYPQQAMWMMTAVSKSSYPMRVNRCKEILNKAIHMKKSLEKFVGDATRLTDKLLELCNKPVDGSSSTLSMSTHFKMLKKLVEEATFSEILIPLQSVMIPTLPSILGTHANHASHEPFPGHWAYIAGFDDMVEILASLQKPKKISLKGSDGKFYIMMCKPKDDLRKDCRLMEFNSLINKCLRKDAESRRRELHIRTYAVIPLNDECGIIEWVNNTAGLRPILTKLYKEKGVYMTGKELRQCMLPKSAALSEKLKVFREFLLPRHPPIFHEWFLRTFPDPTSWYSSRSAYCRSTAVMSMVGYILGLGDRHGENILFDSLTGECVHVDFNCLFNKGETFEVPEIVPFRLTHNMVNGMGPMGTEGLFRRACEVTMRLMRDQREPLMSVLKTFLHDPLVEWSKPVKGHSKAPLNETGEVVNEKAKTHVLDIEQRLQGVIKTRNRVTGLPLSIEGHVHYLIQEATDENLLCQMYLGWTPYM

Ki	Ki [1]	SMILES
0.1 to 5 µM	–	CN(C)C1CCN(C(=O)c2cccc(-c3cnc(N)c(C(=O)Nc4ccccc4)n3)c2)C1 (stereo not shown) [Compound I-55, 3-amino-6-(3-(3-(dimethylamino)pyrrolidine-1-carbonyl)phenyl)-N-phenylpyrazine-2-carboxamide]
0.1 to 5 µM	–	Nc1ncc(-c2cccc(C(=O)NC3CCC(O)CC3)c2)nc1C(=O)Nc1ccccc1 (stereo not shown) [Compound I-57, 3-amino-6-(3-(4-hydroxycyclohexylcarbamoyl)phenyl)-N-phenylpyrazine-2-carboxamide]
0.01 to 0.1 µM	–	CN(C)C1CCN(C(=O)c2ccc(-c3cnc(N)c(C(=O)Nc4ccccc4)n3)cc2)C1 (stereo not shown) [Compound I-76, 3-amino-6-(4-(3-(dimethylamino)pyrrolidine-1-carbonyl)phenyl)-N-phenylpyrazine-2-carboxamide]
0.01 to 0.1 µM	–	Nc1ncc(-c2ccc(C(=O)N3CCCNCC3)cc2)nc1-c1noc(-c2ccccc2)n1 [IA-2]
0.01 to 0.1 µM	–	CC(C)(C)CCN1CCCN(C(=O)c2ccc(-c3cnc(N)c(-c4nnc(-c5ccccc5)o4)n3)cc2)CC1 [IA-27]
0.01 to 0.1 µM	–	Nc1ncc(-c2ccc(C(=O)N3CCCNCC3)c3ccccc23)nc1-c1nnc(-c2ccccc2)o1 [IA-48]
–	≤ 0.01 µM	CS(=O)(=O)c1ccc(-c2cnc(N)c(-c3nnc(-c4ccccc4)o3)n2)cc1 [IA-89, 5-(4-methylsulfonylphenyl)-3-(5-phenyl-1,3,4-oxadiazol-2-yl)pyrazin-2-amine]
≤ 0.01 µM	–	CC(NC(=O)OC(C)(C)C)c1cccc(-c2nnc(-c3nc(-c4ccc(S(=O)(=O)C(C)C)cc4)cnc3N)o2)c1 (stereo not shown) [IA-154, tert-butyl N-[1-[3-[5-[3-amino-6-(4-isopropylsulfonylphenyl)pyrazin-2-yl]-1,3,4-oxadiazol-2-yl]phenyl]ethyl]carbamate]
–	≤ 0.01 µM	C[S+]([O-])c1ccc(-c2cnc(N)c(-c3nnc(-c4ccccc4)o3)n2)cc1 (stereo not shown) [IA-274, 5-(4-methylsulfinylphenyl)-3-(5-phenyl-1,3,4-oxadiazol-2-yl)pyrazin-2-amine]
–	≤ 0.01 µM	CNCc1ccc(-c2nnc(-c3nc(-c4ccc(S(=O)(=O)C(C)C)c(OC(F)(F)F)c4)cnc3N)o2)cc1 [IA-290, 5-[4-isopropylsulfonyl-3-(trifluoromethoxy)phenyl]-3-[5-[4-(methylaminomethyl)phenyl]-1,3,4-oxadiazol-2-yl]pyrazin-2-amine]
–	≤ 0.01 µM	CNCc1ccc(-c2nnc(-c3nc(-c4ccc(S(=O)(=O)C(C)CCOC)cc4)cnc3N)o2)c(F)c1 (stereo not shown) [IA-332, 3-[5-[2-fluoro-4-(methylaminomethyl)phenyl]-1,3,4-oxadiazol-2-yl]-5-[4-(3-methoxy-1-methyl-propyl)sulfonylphenyl]pyrazin-2-amine]
–	0.01 to 0.1 µM	CCc1cccc(NC(=O)c2nc(-c3ccc(S(C)(=O)=O)cc3)cnc2N)n1 [VII-4]
–	0.01 to 0.1 µM	Cc1cccc(NC(=O)c2nc(-c3ccc(S(C)(=O)=O)cc3)cnc2N)n1 [VII-5]
